In US8486372B2, “Cyclic azapeptides as integrin markers and methods of using” (Siemens Medical Solutions USA, Inc., priority 2007, dated 2013):

Molecular target: T1, Integrin αvβ3 expressing U87MG cells (Homo sapiens, UniProt P05106+P06756)
T1 construct: Integrin αvβ3 expressing U87MG cells; endogenous in cells; host or cells: U87MG cells
Test: Cell-based integrin binding competition assay against green fluorescence labeled compound 13
Conditions: 0-32 μM compound, 2 μM compound 13, 2 hrs, fluorescence reading, FIG. 2
Experimental: Integrin αvβ3 expressing U87MG cells were incubated with a series of concentration of RGD compounds (0-32 μM) in the presence of 2 μM of green fluorescence labeled compound 13 for 2 hrs. After incubation, cells were washed three times to eliminate unbound RGD compounds. Fluorescence readings (RLU) were then taken (excitation at 491 nm, emission at 518 nm, cutoff 515 nm).

N=C(N)NCCC[C@@H]1NC(=O)[C@H](CCCCN)NC(=O)N(Cc2ccccc2)NC(=O)[C@H](CC(=O)O)NC(=O)CNC1=O [Compound 7, 2-((5S,8S,14S)-5-(4-aminobutyl)-2-benzyl-8-(3-guanidinopropyl)-3,6,9,12,15-pentaoxo-1,2,4,7,10,13-hexaazacyclopentadecan-14-yl)acetic acid]
potency in binding competition: very similar in potency
